In one assay the target is T1, JNK3 (Homo sapiens, UniProt P53779).
T1 construct: purchased Eurofins DiscoverX KINOMEscan
Kind of assay: KINOMEscan 1 μM, JNK3. Format: binding. To be noted: 1000 nM; Entrez MAPK10; read-out: Percent Control. The source says: (§1) Supplement cells-12-00287-s001.zip/File S2. KinomeScan data for the CAMKK2 probe and negative control.xlsx, sheet "SGC-CAMKK2-1" | column: Percent Control

For a further assay, the target named is T2, CSNK1D (Homo sapiens, UniProt P48730).
T2 construct: purchased Eurofins DiscoverX KINOMEscan
Kind of assay: KINOMEscan 1 μM, CSNK1D. Format: binding. The following applies: 1000 nM; Entrez CSNK1D; read-out: Percent Control.
Source text: as §1

For assay [1], the target named is T3, JAK1(JH2domain-pseudokinase) (Homo sapiens, UniProt P23458).
T3 construct: JAK1(JH2domain-pseudokinase); purchased Eurofins DiscoverX KINOMEscan
The assay is described as follows: KINOMEscan 1 μM, JAK1(JH2domain-pseudokinase). The format is binding. To be noted: 1000 nM; Entrez JAK1; read-out: Percent Control.
Source text: as §1

For assay [2], the target named is T4, RPS6KA5(Kin.Dom.2-C-terminal) (Homo sapiens, UniProt O75582).
T4 construct: RPS6KA5(Kin.Dom.2-C-terminal); purchased Eurofins DiscoverX KINOMEscan
Kind of assay: DiscoverX KINOMEscan binding assay at 1 μM, RPS6KA5(Kin.Dom.2-C-terminal). To be noted: Compound Concentration 1000 nM, read-out: Percent Control.
Source text: as §1

A further assay concerns the target T5, AKT2 (Homo sapiens, UniProt P31751).
T5 construct: purchased Eurofins DiscoverX KINOMEscan
The assay is described as follows: KINOMEscan 1 μM, AKT2. The format is binding. The following applies: 1000 nM; Entrez AKT2; read-out: Percent Control.
Source text: as §1

For another assay, the target named is T6, MAP4K5 (Homo sapiens, UniProt Q9Y4K4).
T6 construct: purchased Eurofins DiscoverX KINOMEscan
The assay is described as follows: KINOMEscan 1 μM, MAP4K5. Format: binding. The following applies: 1000 nM; Entrez MAP4K5; read-out: Percent Control.
Source text: as §1

A further assay deals with T7, QSK (Homo sapiens, UniProt Q9Y2K2).
T7 construct: purchased Eurofins DiscoverX KINOMEscan
The assay is described as follows: DiscoverX KINOMEscan binding assay at 1 μM, QSK. To be noted: QSK (KIAA0999); Compound Concentration 1000 nM; read-out: Percent Control.
Source text: as §1

Another assay deals with T8, BMX (Homo sapiens, UniProt P51813).
T8 construct: purchased Eurofins DiscoverX KINOMEscan
Kind of assay: KINOMEscan 1 μM, BMX. Format: binding. The following applies: 1000 nM; Entrez BMX; read-out: Percent Control.
Source text: as §1

For another assay, the target named is T9, IRAK4 (Homo sapiens, UniProt Q9NWZ3).
T9 construct: purchased Eurofins DiscoverX KINOMEscan
The assay is described as follows: KINOMEscan 1 μM, IRAK4. Format: binding. The following applies: 1000 nM; Entrez IRAK4; read-out: Percent Control.
Source text: as §1

The target in the next assay is T10, MYO3A (Homo sapiens, UniProt Q8NEV4).
T10 construct: purchased Eurofins DiscoverX KINOMEscan
The assay is described as follows: KINOMEscan 1 μM, MYO3A. The format is binding. To be noted: 1000 nM; Entrez MYO3A; read-out: Percent Control.
Source text: as §1

A further assay deals with T11, EPHB6 (Homo sapiens, UniProt O15197).
T11 construct: purchased Eurofins DiscoverX KINOMEscan
Kind of assay: KINOMEscan 1 μM, EPHB6. Format: binding. To be noted: 1000 nM; Entrez EPHB6; read-out: Percent Control.
Source text: as §1

Assay [3] deals with T12, JAK2(JH1domain-catalytic) (Homo sapiens, UniProt O60674).
T12 construct: JAK2(JH1domain-catalytic); purchased Eurofins DiscoverX KINOMEscan
The assay is described as follows: KINOMEscan 1 μM, JAK2(JH1domain-catalytic). Format: binding. To be noted: 1000 nM; Entrez JAK2; read-out: Percent Control.
Source text: as §1

Assay [4] has as its target T13, FER (Homo sapiens, UniProt P16591).
T13 construct: purchased Eurofins DiscoverX KINOMEscan
Kind of assay: KINOMEscan 1 μM, FER. The format is binding. The following applies: 1000 nM; Entrez FER; read-out: Percent Control.
Source text: as §1

The target of a further assay is T14, ALK (Homo sapiens, UniProt Q9UM73).
T14 construct: purchased Eurofins DiscoverX KINOMEscan
The assay is described as follows: KINOMEscan 1 μM, ALK. Format: binding. The following applies: 1000 nM; Entrez ALK; read-out: Percent Control.
Source text: as §1

Another assay concerns the target T15, EGFR(S752-I759del) (Homo sapiens, UniProt P00533, DEL752-759).
T15 construct: purchased Eurofins DiscoverX KINOMEscan
The assay is described as follows: KINOMEscan 1 μM, EGFR(S752-I759del). The format is binding. To be noted: 1000 nM; Entrez EGFR; read-out: Percent Control.
Source text: as §1

Another assay addresses T16, STK16 (Homo sapiens, UniProt O75716).
T16 construct: purchased Eurofins DiscoverX KINOMEscan
The assay is described as follows: KINOMEscan 1 μM, STK16. The format is binding. To be noted: 1000 nM; Entrez STK16; read-out: Percent Control.
Source text: as §1

A further assay has as its target T17, YSK1 (Homo sapiens, UniProt O00506).
T17 construct: purchased Eurofins DiscoverX KINOMEscan
The assay is described as follows: DiscoverX KINOMEscan binding assay at 1 μM, YSK1. To be noted: YSK1 (STK25); Compound Concentration 1000 nM; read-out: Percent Control.
Source text: as §1

The test system of another assay is FLT3(ITD,F691L). The assay is described as follows: KINOMEscan 1 μM, FLT3(ITD,F691L). The following applies: 1000 nM; Entrez FLT3. The format is binding, human.
Source text: as §1

The next assay addresses T18, CSNK1E (Homo sapiens, UniProt P49674).
T18 construct: purchased Eurofins DiscoverX KINOMEscan
Kind of assay: KINOMEscan at 1 μM, CSNK1E. The format is binding. The following applies: 1000 nM, read-out: Percent Control. The source says: (§2) Supplement cells-12-00287-s001.zip/File S2. KinomeScan data for the CAMKK2 probe and negative control.xlsx, sheet "SGC-CAMKK2-1N" | column: Percent Control

The target in a further assay is T19, TSSK1B (Homo sapiens, UniProt Q9BXA7).
T19 construct: purchased Eurofins DiscoverX KINOMEscan
Kind of assay: KINOMEscan at 1 μM, TSSK1B. The format is binding. To be noted: 1000 nM, read-out: Percent Control.
Source text: as §2

The target in a further assay is T20, PKN2 (Homo sapiens, UniProt Q16513).
T20 construct: purchased Eurofins DiscoverX KINOMEscan
Kind of assay: KINOMEscan at 1 μM, PKN2. Format: binding. To be noted: 1000 nM, read-out: Percent Control.
Source text: as §2

In another assay the target is T21, DRAK1 (Homo sapiens, UniProt Q9UEE5).
T21 construct: purchased Eurofins DiscoverX KINOMEscan
Kind of assay: KINOMEscan at 1 μM, DRAK1. Format: binding. To be noted: 1000 nM, read-out: Percent Control.
Source text: as §2

Another assay concerns the target T22, ULK3 (Homo sapiens, UniProt Q6PHR2).
T22 construct: purchased Eurofins DiscoverX KINOMEscan
Kind of assay: KINOMEscan at 1 μM, ULK3. Format: binding. The following applies: 1000 nM, read-out: Percent Control.
Source text: as §2

For assay [5], the target named is T23, ABL1(T315I)-phosphorylated (Homo sapiens, UniProt P00519, T315I).
T23 construct: purchased Eurofins DiscoverX KINOMEscan
Kind of assay: KINOMEscan at 1 μM, ABL1(T315I)-phosphorylated. The format is binding. To be noted: 1000 nM, read-out: Percent Control.
Source text: as §2

The target of the next assay is T24, MRCKA (Homo sapiens, UniProt Q5VT25).
T24 construct: purchased Eurofins DiscoverX KINOMEscan
The assay is described as follows: KINOMEscan at 1 μM, MRCKA. The format is binding. The following applies: 1000 nM, read-out: Percent Control.
Source text: as §2

A further assay concerns the target T25, RET(V804M) (Homo sapiens, UniProt P07949, V804M).
T25 construct: purchased Eurofins DiscoverX KINOMEscan
The assay is described as follows: KINOMEscan binding assay at 1 μM, RET(V804M). The following applies: Compound Concentration 1000 nM; read-out: Percent Control.
Source text: as §2

The target in a further assay is T26, MKNK2 (Homo sapiens, UniProt Q9HBH9).
T26 construct: purchased Eurofins DiscoverX KINOMEscan
The assay is described as follows: KINOMEscan at 1 μM, MKNK2. The format is binding. To be noted: 1000 nM, read-out: Percent Control.
Source text: as §2

Assay [6] addresses T13, FER. Kind of assay: KINOMEscan binding assay at 1 μM, FER. To be noted: Compound Concentration 1000 nM; read-out: Percent Control.
Source text: as §2

Another assay addresses T27, YANK1 (Homo sapiens, UniProt Q8WU08).
T27 construct: purchased Eurofins DiscoverX KINOMEscan
The assay is described as follows: KINOMEscan at 1 μM, YANK1. Format: binding. To be noted: 1000 nM, read-out: Percent Control.
Source text: as §2

In another assay the target is T28, TRKB (Homo sapiens, UniProt Q16620).
T28 construct: purchased Eurofins DiscoverX KINOMEscan
The assay is described as follows: KINOMEscan at 1 μM, TRKB. To be noted: 1000 nM, read-out: Percent Control. The format is binding.
Source text: as §2

Another assay deals with T29, ACVR2B (Homo sapiens, UniProt Q13705).
T29 construct: purchased Eurofins DiscoverX KINOMEscan
Kind of assay: KINOMEscan at 1 μM, ACVR2B. To be noted: 1000 nM, read-out: Percent Control. Format: binding.
Source text: as §2

T13 sequence (P16591 whole entry): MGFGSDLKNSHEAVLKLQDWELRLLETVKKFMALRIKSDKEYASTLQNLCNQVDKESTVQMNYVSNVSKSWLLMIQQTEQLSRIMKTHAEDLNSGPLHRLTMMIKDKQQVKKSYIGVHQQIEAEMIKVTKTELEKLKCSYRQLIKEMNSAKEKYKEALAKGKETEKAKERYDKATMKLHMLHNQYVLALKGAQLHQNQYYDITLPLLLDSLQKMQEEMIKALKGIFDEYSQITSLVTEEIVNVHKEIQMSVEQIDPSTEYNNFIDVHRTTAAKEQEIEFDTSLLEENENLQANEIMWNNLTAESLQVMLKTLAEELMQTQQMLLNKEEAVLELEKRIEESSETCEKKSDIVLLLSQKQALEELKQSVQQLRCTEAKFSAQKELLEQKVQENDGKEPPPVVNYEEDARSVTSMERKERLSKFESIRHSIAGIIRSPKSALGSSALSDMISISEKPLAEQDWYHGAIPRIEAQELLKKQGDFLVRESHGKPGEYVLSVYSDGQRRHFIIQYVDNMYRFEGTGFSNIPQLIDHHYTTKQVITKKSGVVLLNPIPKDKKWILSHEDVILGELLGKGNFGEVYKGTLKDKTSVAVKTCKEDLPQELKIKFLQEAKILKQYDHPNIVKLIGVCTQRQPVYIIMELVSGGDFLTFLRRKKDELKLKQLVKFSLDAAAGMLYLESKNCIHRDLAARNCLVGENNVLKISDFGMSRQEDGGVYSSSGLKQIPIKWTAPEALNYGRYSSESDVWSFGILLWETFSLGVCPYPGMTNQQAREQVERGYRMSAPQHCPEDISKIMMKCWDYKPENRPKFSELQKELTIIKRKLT
T24 sequence (Q5VT25 whole entry): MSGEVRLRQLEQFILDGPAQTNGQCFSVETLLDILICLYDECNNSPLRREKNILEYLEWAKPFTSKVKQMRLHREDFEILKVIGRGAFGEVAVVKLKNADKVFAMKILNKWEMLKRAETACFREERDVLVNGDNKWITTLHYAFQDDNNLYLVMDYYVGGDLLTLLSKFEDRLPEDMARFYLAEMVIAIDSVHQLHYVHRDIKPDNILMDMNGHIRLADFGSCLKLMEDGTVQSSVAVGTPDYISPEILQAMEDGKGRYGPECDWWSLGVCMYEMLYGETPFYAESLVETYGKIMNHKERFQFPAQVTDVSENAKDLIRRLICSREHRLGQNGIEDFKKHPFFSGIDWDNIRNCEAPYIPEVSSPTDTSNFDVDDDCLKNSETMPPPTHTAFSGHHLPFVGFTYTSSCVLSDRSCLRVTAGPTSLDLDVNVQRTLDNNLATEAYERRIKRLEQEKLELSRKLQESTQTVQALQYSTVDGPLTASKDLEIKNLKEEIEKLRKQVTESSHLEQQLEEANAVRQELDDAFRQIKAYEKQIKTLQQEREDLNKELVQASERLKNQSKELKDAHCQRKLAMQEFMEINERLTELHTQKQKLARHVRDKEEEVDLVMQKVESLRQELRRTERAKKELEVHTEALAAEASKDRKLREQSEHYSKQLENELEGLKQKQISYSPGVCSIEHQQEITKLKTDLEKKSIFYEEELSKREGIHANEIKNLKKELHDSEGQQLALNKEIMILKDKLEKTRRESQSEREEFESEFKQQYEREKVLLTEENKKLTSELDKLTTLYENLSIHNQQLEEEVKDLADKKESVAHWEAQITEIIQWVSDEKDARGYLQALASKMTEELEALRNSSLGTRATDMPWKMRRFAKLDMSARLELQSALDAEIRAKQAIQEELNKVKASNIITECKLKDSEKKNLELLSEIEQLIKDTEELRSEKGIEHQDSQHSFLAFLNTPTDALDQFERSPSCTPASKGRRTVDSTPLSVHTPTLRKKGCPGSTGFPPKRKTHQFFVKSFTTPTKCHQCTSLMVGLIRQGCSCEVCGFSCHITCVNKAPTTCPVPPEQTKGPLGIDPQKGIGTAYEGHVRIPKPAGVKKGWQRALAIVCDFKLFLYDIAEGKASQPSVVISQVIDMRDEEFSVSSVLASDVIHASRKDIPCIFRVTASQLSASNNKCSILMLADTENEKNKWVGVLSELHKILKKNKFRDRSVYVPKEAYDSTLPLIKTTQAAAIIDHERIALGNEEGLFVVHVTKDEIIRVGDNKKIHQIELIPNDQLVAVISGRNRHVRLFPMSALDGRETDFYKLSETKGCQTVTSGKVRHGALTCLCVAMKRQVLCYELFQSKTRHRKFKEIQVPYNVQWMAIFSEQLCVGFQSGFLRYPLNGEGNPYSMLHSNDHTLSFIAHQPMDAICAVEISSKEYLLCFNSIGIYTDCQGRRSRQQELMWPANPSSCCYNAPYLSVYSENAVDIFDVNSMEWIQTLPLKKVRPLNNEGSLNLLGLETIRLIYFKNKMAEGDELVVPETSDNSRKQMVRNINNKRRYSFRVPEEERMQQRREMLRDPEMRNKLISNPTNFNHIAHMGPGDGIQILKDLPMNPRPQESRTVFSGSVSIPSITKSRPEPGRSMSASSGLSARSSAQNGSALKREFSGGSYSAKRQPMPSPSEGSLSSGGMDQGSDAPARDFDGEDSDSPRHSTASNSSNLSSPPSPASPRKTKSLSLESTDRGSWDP
T3 sequence (P23458 583-855 limits assumed): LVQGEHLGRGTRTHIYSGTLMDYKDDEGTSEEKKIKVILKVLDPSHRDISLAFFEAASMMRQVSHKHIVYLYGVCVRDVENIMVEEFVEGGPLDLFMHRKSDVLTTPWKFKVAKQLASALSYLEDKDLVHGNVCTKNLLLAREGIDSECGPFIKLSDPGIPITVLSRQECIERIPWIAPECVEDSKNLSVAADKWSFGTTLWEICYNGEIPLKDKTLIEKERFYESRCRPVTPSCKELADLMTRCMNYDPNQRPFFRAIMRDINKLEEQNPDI
T20 sequence (Q16513 whole entry): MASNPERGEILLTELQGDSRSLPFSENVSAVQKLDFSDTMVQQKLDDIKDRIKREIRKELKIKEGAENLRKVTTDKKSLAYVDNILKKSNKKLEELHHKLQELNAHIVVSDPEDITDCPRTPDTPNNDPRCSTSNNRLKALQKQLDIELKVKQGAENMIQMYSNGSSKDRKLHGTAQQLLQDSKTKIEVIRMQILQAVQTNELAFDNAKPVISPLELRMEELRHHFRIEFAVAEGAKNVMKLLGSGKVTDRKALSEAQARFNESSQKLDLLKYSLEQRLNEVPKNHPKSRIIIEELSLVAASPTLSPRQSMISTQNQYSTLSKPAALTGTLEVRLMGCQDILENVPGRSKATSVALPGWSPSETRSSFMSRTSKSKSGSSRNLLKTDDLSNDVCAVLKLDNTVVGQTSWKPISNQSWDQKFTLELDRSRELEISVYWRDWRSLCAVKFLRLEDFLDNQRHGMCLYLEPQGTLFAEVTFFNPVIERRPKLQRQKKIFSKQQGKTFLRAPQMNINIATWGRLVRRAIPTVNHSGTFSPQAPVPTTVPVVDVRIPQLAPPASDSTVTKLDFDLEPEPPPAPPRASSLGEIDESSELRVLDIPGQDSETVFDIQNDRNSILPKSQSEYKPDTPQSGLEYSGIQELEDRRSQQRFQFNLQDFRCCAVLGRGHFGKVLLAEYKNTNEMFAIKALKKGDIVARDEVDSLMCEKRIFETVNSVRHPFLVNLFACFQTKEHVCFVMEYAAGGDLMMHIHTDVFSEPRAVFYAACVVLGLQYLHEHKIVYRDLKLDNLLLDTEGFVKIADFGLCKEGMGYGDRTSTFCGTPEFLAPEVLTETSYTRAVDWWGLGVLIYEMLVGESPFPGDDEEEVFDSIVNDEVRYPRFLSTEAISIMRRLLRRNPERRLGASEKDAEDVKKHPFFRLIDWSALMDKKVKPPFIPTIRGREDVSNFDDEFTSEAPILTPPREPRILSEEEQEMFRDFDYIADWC
T9 sequence (Q9NWZ3 whole entry): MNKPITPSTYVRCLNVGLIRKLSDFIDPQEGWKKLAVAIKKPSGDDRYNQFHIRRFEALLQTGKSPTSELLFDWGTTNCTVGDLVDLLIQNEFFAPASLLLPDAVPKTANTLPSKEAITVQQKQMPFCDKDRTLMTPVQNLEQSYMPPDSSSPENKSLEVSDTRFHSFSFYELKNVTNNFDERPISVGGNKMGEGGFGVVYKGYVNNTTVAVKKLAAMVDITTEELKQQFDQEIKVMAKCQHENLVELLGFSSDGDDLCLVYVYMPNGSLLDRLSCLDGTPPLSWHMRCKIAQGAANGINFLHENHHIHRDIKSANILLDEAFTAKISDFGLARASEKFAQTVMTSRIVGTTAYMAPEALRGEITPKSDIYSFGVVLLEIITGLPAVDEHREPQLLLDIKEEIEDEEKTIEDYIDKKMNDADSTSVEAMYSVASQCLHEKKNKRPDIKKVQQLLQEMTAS
T12 sequence (O60674 840-1132 limits assumed): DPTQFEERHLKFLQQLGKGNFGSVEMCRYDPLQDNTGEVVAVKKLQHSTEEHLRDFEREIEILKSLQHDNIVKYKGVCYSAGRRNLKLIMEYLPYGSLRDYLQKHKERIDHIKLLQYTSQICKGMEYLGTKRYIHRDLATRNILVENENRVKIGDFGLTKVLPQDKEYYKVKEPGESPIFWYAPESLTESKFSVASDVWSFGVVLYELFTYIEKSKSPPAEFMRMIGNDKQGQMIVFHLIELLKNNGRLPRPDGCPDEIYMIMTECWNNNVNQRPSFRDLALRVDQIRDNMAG
T19 sequence (Q9BXA7 whole entry): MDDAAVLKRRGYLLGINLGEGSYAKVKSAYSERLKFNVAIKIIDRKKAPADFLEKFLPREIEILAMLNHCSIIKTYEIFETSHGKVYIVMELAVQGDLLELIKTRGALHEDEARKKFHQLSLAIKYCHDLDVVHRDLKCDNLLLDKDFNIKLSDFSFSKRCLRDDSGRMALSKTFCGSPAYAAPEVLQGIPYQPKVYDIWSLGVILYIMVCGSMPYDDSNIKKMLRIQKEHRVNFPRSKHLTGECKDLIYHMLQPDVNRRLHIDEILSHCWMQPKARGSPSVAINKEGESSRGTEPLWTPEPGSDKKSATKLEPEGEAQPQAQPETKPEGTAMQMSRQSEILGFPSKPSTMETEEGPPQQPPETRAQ

In the case of `Cc1cccc(-c2cnc3occ(-c4ccc(C(=O)O)c(C5CCCC5)c4)c3c2)c1` [SGC-CAMKK2-1 (YL-36)], the remaining binding at 1 µM amounted to 100% on JNK3; 100% on CSNK1D; 90% in [1]; 100% in assay [2]; 100% on AKT2; 100% on MAP4K5. Moreover, the remaining binding at 1 µM on QSK came out at 100%; at BMX it was 100%; at IRAK4 it was 100%; at MYO3A it was 100%; at EPHB6 it was 43%; in assay [3] it was 100%. Also, the remaining binding at 1 µM at FER [4] was determined as 77%; on ALK, 100%; at EGFR(S752-I759del), 87%; on STK16 it was 93%; on YSK1, 100%. Also, in the assay on FLT3(ITD,F691L), the “Percent Control” value worked out at 100%.

Consider `O=C(O)c1ccc(-c2coc3ncc(-c4ccccc4)cc23)cc1Cl` [SGC-CAMKK2-1N (UNC-YL-83)], for which the remaining binding at 1 µM on CSNK1E came to 92%; on TSSK1B it was 83%; on PKN2, 83%; at DRAK1, 93%; on ULK3, 82%; in assay [5], 84%. Moreover, the remaining binding at 1 µM at MRCKA was 96%; on RET(V804M), 100%; on MKNK2, 67%; on FER [6], 100%; at YANK1, 84%; on TRKB, 81%. The remaining binding at 1 µM at ACVR2B was 66%.

These data come from PMC9856672, “SGC-CAMKK2-1: A Chemical Probe for CAMKK2” (Cells, 2023).
